From patent US8178552B2, “7-Azaindole derivatives and their use in the inhibition of c-Jun N-terminal kinase” (Eisai R&D Management Co., Ltd., priority 2008, dated 2012)

Columns and labels:
[1] = test system: panel of 100 kinases; assay: Selectivity against a panel of 100 kinases (Upstate/Millipore), expressed as Gini coefficient; assay type: biochemical; conditions: calculated from remaining activity at 1 micromolar compound, 10 micromolar ATP, 0 = non-selective, 1 = perfect selectivity
Protocol: Inhibitory potency of compounds (I) at a concentration of 1 micromolar and with ATP concentration of 10 micromolar was determined at Upstate/Millipore against a panel of 100 kinases representing all major families within the kinome. The results are presented in Table 3 and are expressed as percentage of remaining activity.
For comparison purposes Table 4 contains the relevant inhibitory data for reference compounds A-K containing a (hetero)aromatic ring at C(5) of the 7-azaindole system.
Selectivity of compounds according to the present invention and reference compounds expressed as Gini coefficient (J. Med. Chem. 2007, 50, 5773-5779) is shown in Table 5. The individual Gini coefficients have been calculated using the data in Tables 3 and 4. Value Gini=0 corresponds to a totally non-selective compound; value Gini=1 reflects perfect selectivity (inhibition of a single target only)

[2] = target: JNK2 (Homo sapiens, UniProt P45984); assay: JNK2 SPA assay; assay type: biochemical; conditions: 3.33 μM ATP, GST-c-Jun substrate
Protocol: (§1) JNK1, JNK2, JNK3—SPA Assay
(§2) JNK1, JNK2, JNK3—SPA Assay • 1. Compound is dissolved in DMSO to a convenient concentration and this is diluted in 10% DMSO to a five times concentrate of the desired starting concentration (frequently 1:100). • 2. 10 μl of 500 mM EDTA is added to alternative wells of the Opti-plate row, which will receive kinase reaction plus DMSO. This creates the negative control. • 3. For the JNK2 and JNK3 assay, compounds are prepared in six 2-fold dilutions with water and each concentration is tested in duplicate. For the JNK1 assay compounds are prepared in four 5-fold dilutions with water which are tested in triplicate. Controls are treated identically. • 4. 20 μl per well of each compound concentration is transferred to an Opti-plate, in duplicate. • 5. 30 μl (JNK2/3 SPA) or 50 μl (JNK1 SPA) of substrate solution (25 mM HEPES pH 7.5, 10 mM magnesium acetate with 3.33 μM ATP (JNK2/3) or 2 μM ATP (JNK1), approximately 7.5 kBq [γ-^33P] ATP, GST-c-Jun, in water) is added to each well. • 6. 50 μl (JNK2/3 SPA) or 30 μl (JNK1 SPA) of kinase solution (JNK in 25 mM HEPES pH 7.5, 10 mM Mg Acetate) is added to each well.
(§3) • 7. The plate is incubated for 30 minutes at room temperature. • 8. […] Plates are sealed and incubated for 30 minutes at room temperature, centrifuged for 10 minutes at 2500 g and counted. • 10. […]

[3] = target: JNK1 (Homo sapiens, UniProt P45983); assay: JNK1 SPA assay; assay type: biochemical; conditions: 2 μM ATP, GST-c-Jun substrate
Protocol: as §1, §2, §3

[4] = target: JNK3 (Homo sapiens, UniProt P53779); assay: JNK3 SPA assay; assay type: biochemical; conditions: 3.33 μM ATP, GST-c-Jun substrate; read-out: IC50 against JNK3
In short: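 Radiometric SPA using GST-c-Jun with [γ-33P]ATP in 25 mM HEPES pH 7.5 and 10 mM Mg acetate; the substrate solution held 3.33 µM ATP (JNK2/3) or 2 µM ATP (JNK1). Reactions ran 30 min at room temperature and were stopped with glutathione SPA beads plus 40 mM ATP. IC50 is the concentration halving c-Jun phosphorylation versus control.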

[5] = test system: c-Jun phosphorylation; assay: LPS-induced c-Jun phosphorylation in spleen of mice (HTRF); assay type: in vivo, male C57/B16 mice; conditions: Mus musculus, po; 20 mg/kg p.o. 30 min before LPS 10 mg/kg i.p.; 1 hour after LPS; versus vehicle-treated animals; read-out: Percentage reduction in the level of P-c-Jun in spleen
Protocol: (§4) The studies were carried out in male C57/B16 mice. Compounds (20 mg/kg; p.o.) were administered 30 minutes before injection of lipopolysaccharide (LPS). LPS was administered intraperitoneally at a dose of 10 mg/kg. Animals were sacrificed 1 hour following LPS injection. Blood was collected into heparinized tubes for measurement of plasma TNFα levels and spleens were collected for the measurement of c-Jun phosphorylation. Plasma TNFα was measured using an ELISA kit purchased from R&D systems. Spleens were homogenised, extracted in high salt (250 mM NaCl) lysis buffer with phosphatase inhibitors and c-Jun phosphorylation was measured using HTRF. The suppressive effect of compounds was calculated as the percentage reduction of the TNFα level in plasma and P-c-Jun level in spleen as compared with the vehicle-treated animals.

[6] = test system: TNFα; assay: LPS-induced TNFα suppression in mice (plasma TNFα, ELISA); assay type: in vivo, male C57/B16 mice; conditions: Mus musculus, po; 20 mg/kg p.o. 30 min before LPS 10 mg/kg i.p.; 1 hour after LPS; versus vehicle-treated animals; read-out: Percentage reduction in the level of TNFα in plasma
Protocol: as §4

[7] = test system: MOG (35-55)-induced EAE; assay: MOG (35-55)-induced experimental autoimmune encephalomyelitis (EAE) in mice; assay type: in vivo, C57/B16J mice; conditions: 20 mg/kg, p.o., once daily, from appearance of symptoms

JNK3, sequence (P53779 whole entry, species assumed): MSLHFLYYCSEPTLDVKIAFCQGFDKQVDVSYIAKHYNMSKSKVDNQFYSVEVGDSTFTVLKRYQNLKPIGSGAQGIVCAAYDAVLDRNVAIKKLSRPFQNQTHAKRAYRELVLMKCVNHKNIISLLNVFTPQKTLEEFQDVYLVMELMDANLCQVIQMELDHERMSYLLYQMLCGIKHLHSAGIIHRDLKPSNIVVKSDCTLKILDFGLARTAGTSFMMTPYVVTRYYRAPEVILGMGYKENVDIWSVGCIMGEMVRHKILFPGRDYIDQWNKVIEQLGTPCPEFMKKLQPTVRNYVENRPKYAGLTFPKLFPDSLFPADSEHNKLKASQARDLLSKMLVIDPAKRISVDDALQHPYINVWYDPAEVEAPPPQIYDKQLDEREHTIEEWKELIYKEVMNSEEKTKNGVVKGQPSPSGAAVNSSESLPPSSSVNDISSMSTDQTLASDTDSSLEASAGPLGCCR
JNK1, sequence (P45983 whole entry, species assumed): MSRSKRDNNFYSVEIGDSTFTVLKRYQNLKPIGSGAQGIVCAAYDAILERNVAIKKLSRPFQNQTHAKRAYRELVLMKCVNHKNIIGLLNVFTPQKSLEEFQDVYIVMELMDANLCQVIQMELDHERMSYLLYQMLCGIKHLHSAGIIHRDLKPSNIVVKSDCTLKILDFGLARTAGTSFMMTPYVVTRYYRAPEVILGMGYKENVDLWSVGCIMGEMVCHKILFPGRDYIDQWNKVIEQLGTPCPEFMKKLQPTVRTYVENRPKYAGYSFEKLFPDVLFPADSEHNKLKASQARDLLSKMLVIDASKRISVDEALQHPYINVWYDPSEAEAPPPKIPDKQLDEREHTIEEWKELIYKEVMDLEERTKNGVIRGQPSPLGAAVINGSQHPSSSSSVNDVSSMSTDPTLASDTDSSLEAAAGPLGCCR
JNK2, sequence (P45984 whole entry, species assumed): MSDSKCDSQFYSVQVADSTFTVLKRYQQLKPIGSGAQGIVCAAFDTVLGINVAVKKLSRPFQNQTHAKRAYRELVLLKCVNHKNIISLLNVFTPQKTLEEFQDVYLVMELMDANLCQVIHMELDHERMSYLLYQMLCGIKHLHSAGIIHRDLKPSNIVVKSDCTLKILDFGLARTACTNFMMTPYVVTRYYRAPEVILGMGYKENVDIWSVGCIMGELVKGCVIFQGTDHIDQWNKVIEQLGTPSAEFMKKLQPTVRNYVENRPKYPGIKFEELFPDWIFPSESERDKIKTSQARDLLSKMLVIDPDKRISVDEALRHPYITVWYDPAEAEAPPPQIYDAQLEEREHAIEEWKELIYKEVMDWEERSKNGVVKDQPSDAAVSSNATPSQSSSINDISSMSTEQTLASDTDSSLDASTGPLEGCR

Row | Compound | IC50 [4] [nM] | inhibition in vivo at 20 mg/kg [5] [%] | inhibition in vivo at 20 mg/kg [6] [%] | also measured
1 | CN(C)C(=O)c1nc(-c2c[nH]c3ncc(-c4ccccc4)cc23)cs1 [G] |  |  |  | Gini coefficient, reference compounds, aromatic C(5) group [1]: 0.3501
2 | CN1CCN(C(=O)c2nc(-c3c[nH]c4ncc(-c5ccc(N6CCN(C)CC6)cc5)cc34)cs2)CC1 [J] |  |  |  | Gini coefficient, reference compounds, aromatic C(5) group [1]: 0.3286
3 | CN1CCN([C@H]2CC[C@H](c3cnc4[nH]cc(-c5cnn(C)c5)c4c3)CC2)CC1 [compound 25] |  |  |  | Gini coefficient, compounds (I), non-aromatic C(5) group [1]: 0.6769; IC50 [2]: 245 nM; IC50 [3]: 191 nM
4 | Cn1cc(-c2c[nH]c3ncc([C@H]4CC[C@H](N(C)C)CC4)cc23)cn1 [Compound I-71, (1r,4r)-N,N-dimethyl-4-(3-(1-methyl-1H-pyrazol-4-yl)-1H-pyrrolo[2,3-b]pyridin-5-yl)cyclohexanamine] | 189 | 7 | 86 | 
5 | Cn1cc(-c2c[nH]c3ncc([C@H]4CC[C@@H](N5CCCC5)CC4)cc23)cn1 [Compound I-23, 3-(1-methyl-1H-pyrazol-4-yl)-5-((1s,4s)-4-(pyrrolidin-1-yl)cyclohexyl)-1H-pyrrolo[2,3-b]pyridine] | 126 | 2 | 61 | 
6 | CN(C)c1ccc(-c2cnc3[nH]cc(-c4cn[nH]c4)c3c2)cc1 [A] |  |  |  | Gini coefficient, reference compounds, aromatic C(5) group [1]: 0.3368
7 | CN1CCC(c2csc(-c3cnc4[nH]cc(-c5cnn(C)c5)c4c3)n2)CC1 [E] |  |  |  | Gini coefficient, reference compounds, aromatic C(5) group [1]: 0.3757
8 | CN1CCCN([C@H]2CC[C@H](c3cnc4[nH]cc(-c5cnn(C)c5)c4c3)CC2)CC1 [Compound I-37, 5-((1r,4r)-4-(4-methyl-1,4-diazepan-1-yl)cyclohexyl)-3-(1-methyl-1H-pyrazol-4-yl)-1H-pyrrolo[2,3-b]pyridine] | 69 | -3 | 51 | 
9 | CN1CCN([C@H]2CC[C@H](c3cnc4[nH]cc(-c5cnn(C)c5)c4c3)CC2)CC1 [Compound I-25, 3-(1-methyl-1H-pyrazol-4-yl)-5-((1r,4r)-4-(4-methylpiperazin-1-yl)cyclohexyl)-1H-pyrrolo[2,3-b]pyridine] | 90 | 25 | 80 | 
10 | Cn1cc(-c2c[nH]c3ncc([C@H]4CC[C@@H](N(C)C)CC4)cc23)cn1 [Compound I-72, (1s,4s)-N,N-dimethyl-4-(3-(1-methyl-1H-pyrazol-4-yl)-1H-pyrrolo[2,3-b]pyridin-5-yl)cyclohexanamine] | 259 | 15 | 84 | 
11 | Cn1cc(-c2c[nH]c3ncc([C@H]4CC[C@H](N5CCOCC5)CC4)cc23)cn1 [Compound I-6, 4-((1r,4r)-4-(3-(1-methyl-1H-pyrazol-4-yl)-1H-pyrrolo[2,3-b]pyridin-5-yl)cyclohexyl)morpholine] | 80 | 41 | 82 | total white matter area in the lumbar spinal cord ([7]; FIG. 10): preservation; neuronal numbers in the ventral horn of the lumbar spinal cords ([7]; FIG. 11): preservation; demyelination in the lumbar spinal cord ([7]; FIG. 12): decrease
12 | Cn1cc(-c2c[nH]c3ncc([C@H]4CC[C@H](N5CCCOCC5)CC4)cc23)cn1 [Compound I-40, 4-((1r,4r)-4-(3-(1-methyl-1H-pyrazol-4-yl)-1H-pyrrolo[2,3-b]pyridin-5-yl)cyclohexyl)-1,4-oxazepane] | 129 | 35 | 61 | 
13 | Cn1cc(-c2c[nH]c3ncc(C4=CC5CCC4C5)cc23)cn1 (stereo not drawn) [Compound I-136, 5-(bicyclo[2.2.1]hept-2-en-2-yl)-3-(1-methyl-1H-pyrazol-4-yl)-1H-pyrrolo[2,3-b]pyridine] | 76 | 42 | 87 | 
14 | Cn1cc(-c2c[nH]c3ncc(C4CC5CCC4C5)cc23)cn1 (stereo not drawn) [Compound I-137, 5-(bicyclo[2.2.1]heptan-2-yl)-3-(1-methyl-1H-pyrazol-4-yl)-1H-pyrrolo[2,3-b]pyridine] | 45 | 15 | 45 | 
15 | Cn1cc(-c2c[nH]c3ncc(C4CCC5(CC4)OCCO5)cc23)cn1 [Compound I-19, 5-(1,4-Dioxa-spiro[4.5]dec-8-yl)-3-(1-methyl-1H-pyrazol-4-yl)-1H-pyrrolo[2,3-b]pyridine] | 25 | 32 | 9 | 
16 | CC(C)N1CCN([C@H]2CC[C@@H](c3cnc4[nH]cc(-c5cnn(C)c5)c4c3)CC2)CC1 [Compound I-44, 5-((1s,4s)-4-(4-isopropylpiperazin-1-yl)cyclohexyl)-3-(1-methyl-1H-pyrazol-4-yl)-1H-pyrrolo[2,3-b]pyridine] | 129 | 17 | 58 | 
17 | CC1CCC(c2cnc3[nH]cc(-c4cnn(C)c4)c3c2)CC1 (mixture of isomers) [Compound I-3, 3-(1-methyl-1H-pyrazol-4-yl)-5-(4-methylcyclohexyl)-1H-pyrrolo[2,3-b]pyridine] | 58 | 0 | 60 | 
18 | CC1CCC(c2cnc3[nH]cc(-c4cnn(C)c4)c3c2)CC1 (stereo not drawn) [compound 3] |  |  |  | IC50 [2]: 501 nM; IC50 [3]: 178 nM
